Measured values published in paper PMC9134403 (ACS Omega, 2022).

Target: mushroom tyrosinase (Agaricus bisporus, UniProt C7FF04)
Assay: Kinetic analysis
Format: biochemical

Chain of mushroom tyrosinase (C7FF04 1-392): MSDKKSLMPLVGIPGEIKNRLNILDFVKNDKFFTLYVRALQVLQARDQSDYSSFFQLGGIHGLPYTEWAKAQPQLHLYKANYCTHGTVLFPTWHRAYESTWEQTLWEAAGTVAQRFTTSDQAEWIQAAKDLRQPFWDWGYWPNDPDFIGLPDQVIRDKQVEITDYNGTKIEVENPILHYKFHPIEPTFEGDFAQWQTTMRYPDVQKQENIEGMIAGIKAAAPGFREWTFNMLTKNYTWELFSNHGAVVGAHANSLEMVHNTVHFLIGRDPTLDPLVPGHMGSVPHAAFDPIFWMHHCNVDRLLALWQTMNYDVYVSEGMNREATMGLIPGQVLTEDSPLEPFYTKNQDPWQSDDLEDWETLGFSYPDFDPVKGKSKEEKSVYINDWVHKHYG

Ki: 1.98 µM
mode of inhibition (Lineweaver–Burk plot, Km increased, Vmax constant): competitive
Compound: O=[N+]([O-])c1cccc(-c2oc3cc(Br)cc(Br)c3c(=S)c2O)c1 [2n, 5,7-Dibromo-3-hydroxy-2-(3-nitrophenyl)-4H-chromene-4-thione]
